Laboratory results published in patent US6426343B1, “Preparation and use of a specific GABA-Aα5 receptor ligand for treatment of Alzheimer's disease” (Merck Sharp & Dohme Ltd., priority 1995, dated 2002).

Key:
[1] = target: T1, α6β3γ2 (Homo sapiens, UniProt P18507+Q16445); test: Radioligand binding, membranes of stably transfected cells
T1 construct: expressed in transfected cells

[2] = target: T2, α5β3γ2 (Homo sapiens, UniProt P18507+P31644); test: as above
T2 construct: expressed in transfected cells
T2 sequence (P31644 32-462): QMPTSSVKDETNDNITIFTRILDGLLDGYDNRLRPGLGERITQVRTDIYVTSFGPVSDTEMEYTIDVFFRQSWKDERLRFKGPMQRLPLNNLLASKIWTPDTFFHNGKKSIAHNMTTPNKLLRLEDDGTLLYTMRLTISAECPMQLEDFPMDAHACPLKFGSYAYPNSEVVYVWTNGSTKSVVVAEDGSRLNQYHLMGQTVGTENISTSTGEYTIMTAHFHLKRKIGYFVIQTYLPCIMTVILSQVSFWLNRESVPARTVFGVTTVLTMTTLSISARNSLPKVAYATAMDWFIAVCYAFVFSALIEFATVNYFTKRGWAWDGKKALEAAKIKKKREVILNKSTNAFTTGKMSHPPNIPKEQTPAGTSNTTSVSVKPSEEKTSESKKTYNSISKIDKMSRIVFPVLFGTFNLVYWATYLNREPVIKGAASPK
T2 sequence (P28472 26-473 partner): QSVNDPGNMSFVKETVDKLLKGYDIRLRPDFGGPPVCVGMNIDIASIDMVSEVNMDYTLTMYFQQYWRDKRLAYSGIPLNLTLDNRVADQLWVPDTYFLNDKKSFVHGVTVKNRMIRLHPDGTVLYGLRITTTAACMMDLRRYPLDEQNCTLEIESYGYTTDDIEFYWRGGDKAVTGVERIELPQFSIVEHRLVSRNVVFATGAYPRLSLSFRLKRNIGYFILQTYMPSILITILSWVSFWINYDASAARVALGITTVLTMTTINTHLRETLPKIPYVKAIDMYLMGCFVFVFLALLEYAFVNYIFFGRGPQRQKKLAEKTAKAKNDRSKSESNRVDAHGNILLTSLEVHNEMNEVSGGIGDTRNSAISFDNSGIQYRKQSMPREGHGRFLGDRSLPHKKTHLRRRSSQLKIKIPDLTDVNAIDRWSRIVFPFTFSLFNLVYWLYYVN
T2 sequence (P18507 40-467 isoform P18507-1 limits assumed): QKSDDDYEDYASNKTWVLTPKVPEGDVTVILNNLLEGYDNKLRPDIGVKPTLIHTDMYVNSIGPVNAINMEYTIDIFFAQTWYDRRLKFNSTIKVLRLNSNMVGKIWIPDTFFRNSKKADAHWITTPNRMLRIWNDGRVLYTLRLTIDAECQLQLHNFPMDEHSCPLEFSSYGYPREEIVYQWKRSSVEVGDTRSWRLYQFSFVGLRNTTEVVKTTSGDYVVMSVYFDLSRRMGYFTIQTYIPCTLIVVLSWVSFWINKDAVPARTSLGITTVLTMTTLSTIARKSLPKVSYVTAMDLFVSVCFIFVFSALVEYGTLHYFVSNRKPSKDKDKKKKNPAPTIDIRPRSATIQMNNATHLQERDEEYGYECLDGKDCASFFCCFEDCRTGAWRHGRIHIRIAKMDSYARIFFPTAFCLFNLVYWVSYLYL

[3] = target: T3, α1β2γ2 (Homo sapiens, UniProt P14867+P18507); test: Two electrode voltage-clamp, modulation of GABA EC20 current in Xenopus oocytes; type: cell-based; settings: 1 μM
T3 construct: expressed in transfected cells; host or cells: Xenopus oocytes, nuclear injection of cDNAs in pCDM8
Procedure: (§1) Binding studies on transfected cells containing α1β3γ2S, α2β3γ2S, and α5β3γ2S have identified compounds with α5 selectivity. These compounds were studied using electrophysiological techniques (Wafford et al, 1993) to determine their functional effects on […], α2β2γ2S, α3β2γ2S, α5β2γ2S and α6β2γ2S GABAA receptors expressed in Xenopus oocytes. Oocyte nuclei were directly injected with 10.0-20.0 nl of the relevant cDNAs (6.0 ng/μl) engineered into the expression vector pCDM8. Following incubation for 24 h, oocytes were placed in a […] and perfused with saline. By using the two electrode voltage-clamp recording method, GABA activated currents could be measured by bathing the cell in a solution containing GABA. Firstly a reproducible current response was established using a GABA concentration which gave approximately 20% of the maximal GABA response that could be elicited (EC20). […] The response could be potentiated by a BZ receptor agonist or inhibited by BZ receptor inverse agonist

[4] = target: T4, α2β2γ2 (Homo sapiens, UniProt P18507+P47869); test: as above; type: cell-based; settings: 1 μM
T4 construct: expressed in transfected cells; host or cells: Xenopus oocytes, nuclear injection of cDNAs in pCDM8
T4 sequence (P47869 29-451): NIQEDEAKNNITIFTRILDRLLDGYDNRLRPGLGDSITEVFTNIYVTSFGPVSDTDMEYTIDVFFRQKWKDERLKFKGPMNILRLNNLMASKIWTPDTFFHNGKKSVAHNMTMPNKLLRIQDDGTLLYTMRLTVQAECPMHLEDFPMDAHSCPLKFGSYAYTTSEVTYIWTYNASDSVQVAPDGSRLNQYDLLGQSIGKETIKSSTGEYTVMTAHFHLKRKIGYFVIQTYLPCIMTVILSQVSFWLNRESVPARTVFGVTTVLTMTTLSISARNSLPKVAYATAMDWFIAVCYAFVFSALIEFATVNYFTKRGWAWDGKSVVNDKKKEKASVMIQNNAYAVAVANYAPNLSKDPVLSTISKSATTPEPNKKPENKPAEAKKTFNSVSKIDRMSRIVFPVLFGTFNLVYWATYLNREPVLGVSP
T4 sequence (P47870 25-512 partner limits assumed): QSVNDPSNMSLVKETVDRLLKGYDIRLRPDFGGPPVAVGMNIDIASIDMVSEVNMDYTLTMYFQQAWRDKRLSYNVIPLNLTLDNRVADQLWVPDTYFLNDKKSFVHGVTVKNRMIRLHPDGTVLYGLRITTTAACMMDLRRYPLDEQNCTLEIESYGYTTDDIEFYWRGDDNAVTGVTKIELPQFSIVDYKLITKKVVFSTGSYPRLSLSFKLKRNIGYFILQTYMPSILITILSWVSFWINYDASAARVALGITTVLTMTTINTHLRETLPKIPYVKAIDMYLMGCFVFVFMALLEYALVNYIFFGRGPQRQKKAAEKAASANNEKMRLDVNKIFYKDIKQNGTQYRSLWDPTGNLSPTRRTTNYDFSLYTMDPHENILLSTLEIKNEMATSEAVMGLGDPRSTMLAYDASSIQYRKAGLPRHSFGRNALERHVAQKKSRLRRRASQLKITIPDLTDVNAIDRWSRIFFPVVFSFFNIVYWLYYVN
T4 sequence (P18507 40-467 isoform P18507-1 limits assumed): as the sequence (P18507 40-467 isoform P18507-1 limits assumed) above
Procedure: as §1

[5] = target: T5, α5β2γ2 (Homo sapiens, UniProt P18507+P31644); test: as above; type: cell-based; settings: 1 μM
T5 construct: expressed in transfected cells; host or cells: Xenopus oocytes, nuclear injection of cDNAs in pCDM8
T5 sequence (P31644 32-462): as the sequence (P31644 32-462) above
T5 sequence (P47870 25-512 partner limits assumed): as the sequence (P47870 25-512 partner limits assumed) above
T5 sequence (P18507 40-467 isoform P18507-1 limits assumed): as the sequence (P18507 40-467 isoform P18507-1 limits assumed) above
Procedure: as §1

[6] = target: T6, α3β2γ2 (Homo sapiens, UniProt P18507+P34903); test: as above; type: cell-based; settings: 1 μM
T6 construct: expressed in transfected cells; host or cells: Xenopus oocytes, nuclear injection of cDNAs in pCDM8
T6 sequence (P34903 29-492): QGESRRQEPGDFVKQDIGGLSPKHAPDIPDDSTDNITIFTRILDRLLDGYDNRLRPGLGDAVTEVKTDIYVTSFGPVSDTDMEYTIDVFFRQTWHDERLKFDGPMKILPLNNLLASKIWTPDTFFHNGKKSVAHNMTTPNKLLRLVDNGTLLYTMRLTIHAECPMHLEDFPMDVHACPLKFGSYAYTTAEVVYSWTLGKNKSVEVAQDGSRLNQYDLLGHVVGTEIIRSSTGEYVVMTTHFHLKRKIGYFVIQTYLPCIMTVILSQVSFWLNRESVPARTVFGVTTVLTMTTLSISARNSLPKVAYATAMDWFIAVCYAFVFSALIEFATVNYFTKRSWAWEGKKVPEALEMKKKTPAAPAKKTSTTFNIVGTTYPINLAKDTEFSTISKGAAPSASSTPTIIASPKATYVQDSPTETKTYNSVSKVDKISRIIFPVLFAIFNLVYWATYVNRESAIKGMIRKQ
T6 sequence (P47870 25-512 partner limits assumed): as the sequence (P47870 25-512 partner limits assumed) above
T6 sequence (P18507 40-467 isoform P18507-1 limits assumed): as the sequence (P18507 40-467 isoform P18507-1 limits assumed) above
Procedure: as §1

[7] = test system: benzodiazepine binding site of α1-containing GABA receptors; test: In vivo [3H]Ro 15-1788 binding, cerebellum; settings: male, Swiss-Webster, mouse, cerebellum, intraperitoneal, 1 mg/kg, probe [3H]Ro 15-1788
Procedure: (§2) The in vivo binding of [^3H]Ro 15-1788 to mouse brain was performed essentially as described by Goeders and Kuhar (1985). Male Swiss-Webster mice received a 0.9% NaCl solution containing 50 mCi/kg of [^3H]Ro 15-1788 (0.05 ml/10 g of body weight) via the tail vein. […] Each mouse brain was then rapidly removed, homogenised in 5.0 ml of 50 mM Tris HCl, 5.0 mM EDTA, pH 7.4 at 4° C. using an ultra-turrax homogeniser for 10 s at setting 5. In a separate series of experiments different brain regions, selected for their preferential expression of particular GABA subtypes were also examined. Binding of [^3H]Ro 15-1788 to cerebellum is almost exclusively α1-like (Quirk et al, 1994), whereas binding to spinal cord is indicative of binding to receptors containing α2 or α3-subtypes, α1, α4 and α5 are rare or absent in this region (Wisden et al, 1992). Brains were rapidly dissected into forebrain and cerebellum and the spinal cord was also removed. Each forebrain was homogenised in 4.0 ml of buffer (approximately 14 ml/g wet weight of tissue), each cerebellum was homogenised in 1.0 ml of buffer (approximately 14 ml/g wet weight of tissue) and each spinal cord in 1.0 ml of buffer (approximately […] wet weight of tissue). Volumes ([…]) of homogenate were filtered rapidly through GF/B filters, washed with 2×5.0 ml volumes of ice-cold buffer and the residual radioactivity was counted by liquid scintillation spectroscopy.
(§3) Mice were injected intraperitoneally with FG 8094, 10 mg/kg or 1 mg/kg, 30 minutes prior to sacrifice and [^3H]Ro 15-1788 (0.1 mCi/g). Brain regions were dissected, homogenised and filtered as described in methods.

[8] = target: Cerebellum (α1) (Mus musculus, UniProt P22723+P62812); test: In vivo [3H]Ro 15-1788 binding, cerebellum
Chain of Cerebellum (α1) (P62812 28-455): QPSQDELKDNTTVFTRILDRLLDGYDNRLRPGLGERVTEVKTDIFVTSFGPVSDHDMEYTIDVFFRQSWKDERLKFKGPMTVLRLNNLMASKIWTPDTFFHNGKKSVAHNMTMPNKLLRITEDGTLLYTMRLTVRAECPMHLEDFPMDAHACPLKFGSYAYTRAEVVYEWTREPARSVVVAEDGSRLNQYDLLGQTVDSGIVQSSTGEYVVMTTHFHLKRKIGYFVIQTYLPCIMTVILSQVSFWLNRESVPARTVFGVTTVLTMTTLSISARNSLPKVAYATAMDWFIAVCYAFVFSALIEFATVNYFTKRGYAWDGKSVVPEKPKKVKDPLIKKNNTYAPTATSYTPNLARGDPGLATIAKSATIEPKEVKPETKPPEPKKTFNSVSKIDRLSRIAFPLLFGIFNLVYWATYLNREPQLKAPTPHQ
Chain of Cerebellum (α1) (P22723 39-474): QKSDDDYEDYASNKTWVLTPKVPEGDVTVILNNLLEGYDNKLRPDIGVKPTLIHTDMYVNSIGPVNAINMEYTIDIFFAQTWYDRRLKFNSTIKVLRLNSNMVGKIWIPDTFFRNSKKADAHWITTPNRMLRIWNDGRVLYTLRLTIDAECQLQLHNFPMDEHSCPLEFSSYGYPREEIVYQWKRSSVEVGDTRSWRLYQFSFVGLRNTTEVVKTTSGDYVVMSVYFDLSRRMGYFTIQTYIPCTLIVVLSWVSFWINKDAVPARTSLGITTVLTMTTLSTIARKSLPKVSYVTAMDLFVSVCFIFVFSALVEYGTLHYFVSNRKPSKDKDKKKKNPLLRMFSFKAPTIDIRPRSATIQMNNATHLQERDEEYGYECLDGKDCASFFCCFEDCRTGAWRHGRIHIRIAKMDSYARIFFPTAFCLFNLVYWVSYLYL
Chain of Cerebellum (α1) (P63137 25-474 partner limits assumed): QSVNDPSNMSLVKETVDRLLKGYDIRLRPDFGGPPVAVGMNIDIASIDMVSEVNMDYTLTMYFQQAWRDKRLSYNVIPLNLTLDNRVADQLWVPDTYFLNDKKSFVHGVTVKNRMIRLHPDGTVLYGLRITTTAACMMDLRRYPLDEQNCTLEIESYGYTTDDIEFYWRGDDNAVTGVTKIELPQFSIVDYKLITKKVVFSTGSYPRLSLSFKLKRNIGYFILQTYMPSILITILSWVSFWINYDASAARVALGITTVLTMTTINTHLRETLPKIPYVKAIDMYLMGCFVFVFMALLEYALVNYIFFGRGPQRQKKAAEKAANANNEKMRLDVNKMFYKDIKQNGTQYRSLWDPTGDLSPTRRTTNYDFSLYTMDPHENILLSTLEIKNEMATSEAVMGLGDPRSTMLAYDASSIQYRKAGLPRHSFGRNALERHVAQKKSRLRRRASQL
Procedure: as §2, §3

[9] = ip, read-out: percentage inhibition of in vivo [3H]Ro 15-1788 binding, cerebellum

T1 sequence (Q16445 20-453): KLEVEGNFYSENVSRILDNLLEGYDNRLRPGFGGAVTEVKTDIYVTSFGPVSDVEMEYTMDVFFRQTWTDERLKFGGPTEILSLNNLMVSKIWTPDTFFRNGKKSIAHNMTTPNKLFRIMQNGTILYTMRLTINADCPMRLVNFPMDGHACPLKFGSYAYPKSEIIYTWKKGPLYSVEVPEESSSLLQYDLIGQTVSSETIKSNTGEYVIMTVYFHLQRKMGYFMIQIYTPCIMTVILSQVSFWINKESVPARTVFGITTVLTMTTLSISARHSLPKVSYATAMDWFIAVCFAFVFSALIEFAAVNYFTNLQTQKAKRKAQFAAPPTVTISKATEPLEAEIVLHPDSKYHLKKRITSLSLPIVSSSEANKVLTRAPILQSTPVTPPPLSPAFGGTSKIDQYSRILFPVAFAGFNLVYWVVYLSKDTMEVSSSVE
T1 sequence (P28472 26-473 partner): as the sequence (P28472 26-473 partner) above
T1 sequence (P18507 40-467 isoform P18507-1 limits assumed): as the sequence (P18507 40-467 isoform P18507-1 limits assumed) above

CCOC(=O)c1ncn2c1[C@@H]1CCCN1C(=O)c1cc(OC)ccc1-2 [FG 8094, 9H-imidazo[1,5-a]pyrrolo[2,1-C][1,4]benzodiazepine-1-carboxylic acid, 11, 12, 13, 13a-tetrahydro-7-methoxy-9-oxo-, ethyl ester, (S)-(9CI)]
Ki [1]: 83.2 ± 4.5 nM | Ki [2]: 0.45 ± 0.15 nM | selectivity for α5-containing receptors over α1 ([2]; over α1): 107 fold | selectivity for α5-containing receptors over α2 ([2]; over α2): 60 fold | selectivity for α5-containing receptors over α3 ([2]; over α3): 53 fold | selectivity for α5-containing receptors over α6 ([2]; over α6): 184 fold | functional effect on GABA EC20 current, α1β2γ2 [3]: no intrinsic effect | functional effect on GABA EC20 current, α2β2γ2 [4]: partial receptor inverse agonist | functional effect on GABA EC20 current, α5β2γ2 [5]: full receptor inverse agonist | functional effect on GABA EC20 current, α3β2γ2 [6]: partial receptor inverse agonist | concentration at 30 min [7]: 7.8 nM | inhibition at 1 mg/kg [8, 9]: 13.8 ± 4.9% | inhibition at 10 mg/kg [8, 9]: 55 ± 6.9% | receptor occupancy at 1 mg/kg ([8]; read-out: occupancy of α1 receptors): < 15%
